Reference: US8476064B2, “Inhibition assay method and device for detection of antibiotics” (Charm Sciences, Inc., priority 2006, dated 2013)

Columns and labels:
B.st. spores [1] = test: Single service kidney swab microbial growth inhibition test, culture of Example 1, with or without beta-lactam receptor; type: cell-based, Bacillus (Geobacillus) Stearothermophilus; conditions: for test result With receptor: with 1 U receptor
Protocol: A Bromocresol purple (BCP)/Tris Solution was prepared by combining 25 mL of a Trizma Base solution (TBS), the solution including 2.5 grams Trizma Base in 100 mL of reverse osmosis/deionized water (RO/DI Water), with 100 milligrams of BCP and mixing well. The media was prepared by dissolving 5 grams glucose and 1 gram Mueller Hinton Broth (Mueller Hinton broth includes, in purified filtered water, 2 grams per liter (g/L) beef extract, 17.5 g/L casein hydrolysate acid and 1.5 g/L starch, pH 7.3 at 25 degrees C) into 100 mL RO/DI Water. Then a 0.01 mg/mL solution of trimethoprim in RO/DI Water was prepared and 1.2 mL was added to the media. Next 20 mL of BCP/Tris (sterile filtered through 0.45 micron filter) was added to the media.
Agar was prepared by combining 0.3 grams Difco Bacto-Agar (Item #0140-01), 0.225 NaCl and 17.485 RO/DI Water. The mixture was heated to 95° C. and then removed from the heat and allowed to cool to 75° C. Next 6 mL of media (prepared as described above with BCP/Tris) was added to the agar and mixed for 5 minutes. The mixture was cooled to 57° C. and 1 mL spore solution (concentration of 1 billion cfu/mL) was added and mixed together for 5 minutes. 0.200 mL was dispensed into the bottom of a vial 4.
The dispensed vial 4 was prepared as described in example 1. An extractant was prepared by adding 4.8 grams of 47.2% Trizma Base and 52.5% Potassium Phosphate Monobasic to 1000 mL RO/DI Water (pH should be 7.5+/−0.10). The extractant was sealed within the niblet 5 and the niblet was added to the vial 4. The vial 4 was heat sealed with foil.
The single service kidney swab procedure was run by first making a 3 inch incision into kidney. The swab 1 was then withdrawn from the test unit, the test unit in the form of a POCKETSWAB, by gently pulling and twisting the handle 2 out of the test unit body 7. The swab 1 was then inserted into the incision of the kidney and allowed to sit for 15 minutes to allow full absorption of liquid into the swab 1. The swab 1 was reinserted by gently pushing down and twisting to engage the threads 6 and screwing the handle down slowly about halfway. The swab tip 3 punctured the seals 12, 13 & 14 immersing the swab tip 3 into the extractant within the niblet 5 where it sat for 2 minutes. The swab 1 was then screwed down all the way. After shaking and tapping the vial 4 to get residual liquid into the bottom of the vial 4 and in contact with the culture 15, we placed the vial 4 into a heat block set at 67° C. and incubated for 2.5 hours (if urine is tested instead of kidney, incubate for 4 hours).
Culture is prepared as in Example 1. Prior to dispensing 200 microliters into the vial 4, antibiotic binder is prepared, in this example an antibiotic binder from the cell wall of B.st., also known as receptor. Varying amounts of inhibitory receptor units are mixed into the culture. Receptor is defined as protein removed from cellular membrane of B.st. A receptor unit (1 U) is the amount of receptor that will, in the test, reverse the culture growth inhibition of 12.5 ppb of penicillin G.
Results in Table 1 are from tests using the culture described in Example 1 and with the addition of receptor added into rinse buffer (rinse buffer composition is 4.8 grams of 47.2% Trizma Base and 52.5% Potassium Phosphate Monobasic to 1000 mL RO/DI Water) at 0, 0.3 units (U), 1.0 U, 2.0 U, 5.0 Upper test. Sample contained the following amounts of penicillin G: 0, 5 parts per billion (ppb), 10 ppb, 12.5 ppb, 25 ppb and 50 ppb. As shown, 1.0 U was able to reverse the result of a 12.5 ppb penicillin G sample. Results are either positive (+) or negative (−).
Results are either positive (+), negative (−) or borderline between positive and negative (+/−). Abbreviations are penicillin G (PenG); sulfamethazine (SMZ); sulfadimethoxine (SDM); tylosin (TY); gentamicin (G); oxytetracycline (OT). […]

B.st. spores [2] = test: Antibiotic detection test in spiked milk, Trizma/succinate culture of Example 7 (Table 5); type: cell-based, Bacillus (Geobacillus) Stearothermophilus; conditions: for 16 hr Result / % Pos (16 hr Result): 16 hours later; for % Pos (Result) / Result: immediately after test completion
Protocol: A Trizma/Succinate solution was prepared by adding 2.5 grams Trizma Base and 6 grams Succinate to 100 mL of reverse osmosis/deionized water (RO/DI Water) in a 125 mL flask. 40 milligrams of BCP (see example 1 for BCP preparation) was then added to a 50 mL conical tube and 25 mL of the Trizma/Succinate solution was added to the 40 milligrams BCP and mixed.
The media was prepared by dissolving 5 grams glucose and 1 gram Mueller Hinton Broth in 100 mL RO/DI Water. 1.2 mL of a 0.01 mg/mL solution of trimethoprim in RO/DI water was added to the media. 20 mL of the BCP/Trizma/Succinate preparation was added to the media and the media was sterile filtered through a 0.45 micron filter and cooled to 4 degrees C.
0.3 grams Difco Bacto-Agar (Item #0140-01), 0.225 NaCl and 17 mL of RO/DI water was combined and mixed and heated the mixture to 95° C. The mixture was removed from the heat and allowed it to cool to 75° C. and then 6 mL media (with BCP/Tris) was added and mixed for 5 minutes. The mixture was cooled to 57° C. and 2 mL spore (concentration of 1 billion cfu/mL) was added and mixed for 5 minutes. 0.200 mL was dispensed into the bottom of each vial.
In test operation 200 microliters of various milk samples, spiked with known concentrations of antibiotics, were pipetted into vials and incubated for the prescribed time (in this test 2 hours 30 minutes) and prescribed temperature (64 degrees C.+/−2 degrees C.). Results were recorded immediately after test completion and 16 hours later. Incubation was in various Charm Inctronic I incubators. Concentrations listed are in parts per billion (ppb). 4 samples were run at each concentration except 16 negative samples were run and 2 samples each for 3 ppb pen G and amoxicillin. Abbreviations are pencillin G (PenG); sulfamethazine (SMZ); sulfadimethoxine (SDM); tylosin (TY); gentamicin (G); oxytetracycline (OT); pirlimycin (Pirl); amoxicillin (Amox); ampicillin (Amp); cloxacillin (Clox); ceftiofur sodium (Ceft); cephaprin (Ceph); tilmicosin (Til); sulfadoxine (SDN); neomycin (Neo).

[3] = drug concentration 300 (unit not given)
[4] = drug concentration 500 (unit not given)
[5] = drug concentration 800 (unit not given)
[6] = drug concentration 400 (unit not given)
[7] = drug concentration 600 (unit not given)

CC[C@H]1OC(=O)C[C@@H](O)[C@H](C)[C@@H](O[C@@H]2O[C@H](C)[C@@H](O[C@H]3C[C@@](C)(O)[C@@H](O)[C@H](C)O3)[C@H](N(C)C)[C@H]2O)[C@@H](CC=O)C[C@@H](C)C(=O)/C=C/C(C)=C/[C@@H]1CO[C@@H]1O[C@H](C)[C@@H](O)[C@@H](OC)[C@H]1OC [TY, tylosin]
test result w/out receptor (B.st. spores [1]; [3]): +/−
test result With receptor (B.st. spores [1]; [3]): +/−
test result w/out receptor (B.st. spores [1]; [4]): +
test result With receptor (B.st. spores [1]; [4]): +
test result w/out receptor (B.st. spores [1]; [5]): +
test result With receptor (B.st. spores [1]; [5]): +
16 hr Result (B.st. spores [2]; milk spiked at 40 ppb): Pos
% Pos (16 hr Result) (B.st. spores [2]; milk spiked at 40 ppb): 100%
% Pos (Result) (B.st. spores [2]; milk spiked at 40 ppb): 100%
Result (B.st. spores [2]; milk spiked at 40 ppb): Pos
16 hr Result (B.st. spores [2]; milk spiked at 50 ppb): Pos
% Pos (16 hr Result) (B.st. spores [2]; milk spiked at 50 ppb): 100%
% Pos (Result) (B.st. spores [2]; milk spiked at 50 ppb): 100%
Result (B.st. spores [2]; milk spiked at 50 ppb): Pos

gentamicin
test result w/out receptor (B.st. spores [1]; [6]): +/−
test result With receptor (B.st. spores [1]; [6]): +/−
test result w/out receptor (B.st. spores [1]; [7]): +/−
test result With receptor (B.st. spores [1]; [7]): +/−
test result w/out receptor (B.st. spores [1]; [5]): +/−
test result With receptor (B.st. spores [1]; [5]): +/−
16 hr Result (B.st. spores [2]; milk spiked at 300 ppb): Pos
% Pos (16 hr Result) (B.st. spores [2]; milk spiked at 300 ppb): 100%
% Pos (Result) (B.st. spores [2]; milk spiked at 300 ppb): 100%
Result (B.st. spores [2]; milk spiked at 300 ppb): Pos
16 hr Result (B.st. spores [2]; milk spiked at 400 ppb): Pos
% Pos (16 hr Result) (B.st. spores [2]; milk spiked at 400 ppb): 100%
% Pos (Result) (B.st. spores [2]; milk spiked at 400 ppb): 100%
Result (B.st. spores [2]; milk spiked at 400 ppb): Pos
